Source: patent publication US10363284B2, “β-hairpin peptidomimetics” (POLYPHOR AG, priority 2012, dated 2019)
Read-outs that look alike come from different tables or passages of the source. Positions of bridges follow the written chain, without caps; N, C: chain ends. Non-standard residues stand in square brackets, D forms with d. Residues, ends and D or L forms follow the SMILES beside them. dLys(iPr) = CC(C)NCCCC[C@@H](N)C(=O)O; Lys(iPr) = CC(C)NCCCC[C@H](N)C(=O)O; Orn(iPr) = CC(C)NCCC[C@H](N)C(=O)O; Ac3c = NC1(C(=O)O)CC1

Experiments:
[1] = Plasma stability, human plasma; type: in vitro ADME; details: for human pl. T1/2: 37° C.; for remaining at 24 h, 10 μM: 1440 min, read-out: human pl. cpd left at 1440 min
Protocol: (§1) The stability of the peptides in human and mouse plasma was determined by applying the following method: 346.5 μL/deep well of freshly thawed human plasma (Basler Blutspende-dienst) and mouse plasma (Harlan Sera-Lab, UK), respectively, were spiked with 3.5 μL/well of compound dissolved in DMSO/H2O (90/10 [v/v], 1 mM, triplicate) and incubated at 37° C. At t=0, 15, 30, 60, 120, 240 and 1440 min aliquots of 50 μL were transferred to filtration plate wells containing 150 μL/well of 2% formic acid in acetonitrile. Following shaking for 2 min the occurred suspensions were filtrated by vacuum. 100 μL of each filtrate were transferred to a propylene microtiter plate and dried under N2. The residual solids were reconstituted by adding 100 μL/well of water/acetonitrile, 95/5 (v/v)+0.2% formic acid and analyzed by LC/MS as follows: Column: Waters, XBridge C18, mobile phases: (A) water+0.1% formic acid and (B) acetonitrile/water, 95/5 (v/v)+0.1% formic acid, gradient: 5%-100% (B) in 1.8 minutes, electrospray ionization, MRM detection (triple quadrupole). The peak areas were determined and triplicate values are averaged. The stability is expressed in percent of the initial value at t=0. (tx/t0×100). By using the TREND function of EXCEL (Microsoft Office 2003) T1/2 were determined.

[2] = Plasma stability, mouse plasma; type: in vitro ADME; details: for mouse pl. T1/2: 37° C.; for remaining at 24 h, 10 μM: 1440 min, read-out: mouse pl. cpd left at 1440 min
Protocol: as §1

Plasma protein binding = type: in vitro ADME; details: human
Protocol: 495 μL aliquots of human plasma (Basler Blutspendedienst) as well as 495 μL aliquots of PBS were placed in individual deepwells of a polypropylene plate (Greiner) and spiked each with 5 μL of 1 mM solutions of peptides in 90% DMSO. After shaking the plate for 2 min at 600 rpm 150 μL aliquots of the plasma/peptide mixtures were transferred in triplicates to the polypropylene filter plate (10 kDa, Millipore) whereas 150 μL aliquots of the PBS/peptide mixtures were transferred either to the individual wells of the filter plate (filtered controls) or directly into the individual wells of the receiving plate (Greiner) (non-filtered controls). The plate sandwich consisting of filter and receiving plate was incubated for 1 h at 37° C. and subsequently centrifuged at 3220 g for 2 h at 15° C. The filtrates in the receiving plate were analysed by LC/MS as follows: Column: Waters, XBridge C18, mobile phases: (A) water+0.1% formic acid and (B) acetonitrile/water, 95/5 (v/v)+0.1% formic acid, gradient: 5%-100% (B) in 1.8 minutes, electrospray ionization, MRM detection (triple quadrupole). The peak areas were determined and triplicate values are averaged. The binding is expressed in percent of the filtered and non-filtered controls by 100−(100×T1h/Tctr). Finally the average of these values is calculated.

[3] = Pharmacokinetic study (PK) after intravenous administration; type: in vivo, male CD-1 mice; details: mouse, i.v. 1 mg/kg; for AUC(0-inf) / Cmax / half-life / clearance / Vd: one-compartmental model; for clearance: read-out: CLiv (converted); for Vd: read-out: Vdis
Protocol: For the compounds of Ex. 1 and Ex. 2 pharmacokinetic studies after intravenous (i.v.) administration were performed.
30 grams (±20%) male CD-1 mice obtained from Charles River Laboratories Deutschland GmbH were used. The vehicle, phosphate buffered saline, was added to give a final concentration of 0.5 mg/mL of the compound. The volume was 2 mL/kg and the compound was injected to give a final intravenous dose of 1 mg/kg. Approximately 300-400 μL of blood was removed under light isoflurane anesthesia by cardiac puncture at predetermined time intervals (5, 15, 30 min and 1, 2, 3, 4, hours) and added to heparinized tubes. Plasma was removed from pelleted cells upon centrifugation and frozen at −80° C. prior to HPLC-MS analysis.
Aliquots of 50 μL each of mouse plasma of untreated aminals (“blank” mouse plasma) were spiked with known amounts of the compounds Ex. 1 and Ex. 2 in order to obtain 10 plasma calibration samples for each compound in the range 1-4000 ng/mL.
Aliquots of 50 μL each of mouse plasma from treated animals were used as plasma study samples.
All plasma samples were spiked with an appropriate internal standard and extracted with acetonitrile containing 2% formic acid. Supernatants were evaporated to dryness under nitrogen and the remaining solids reconstituted in water+0.2% formic acid/acetonitrile 95/5 (v/v).
Extracts were then analyzed by reverse-phase chromatography (Acquity HSS C18 SB, 100×2.1 mm, 1.8 μm column, Waters), using the following conditions: mobile phases: (A) water+0.1% formic acid/acetonitrile 95/5 (v/v), (B) aceto-nitrile/water+0.1% formic acid 95/5 (v/v), gradient: 1% (B) 0-0.1 min, 40% (B) 0.1-2.5. The detection and quantification was performed by mass spectrometry, with electrospray interface in positive mode and selective fragmentation of analytes (4000 Q Trap mass spectrometer, AB Sciex).
PK parameters were calculated by WinNonLin™ software version 5.3 (Pharsight-A Certara™ Company, Mountain View, Calif. 94041 USA) using a one-compartmental model analysis. PK parameters were determined by least-square fitting of the model to the experimental data.

[4] = read-out: Plasma protein binding (converted)
[5] = male, CD-1, plasma, iv, read-out: Calc. Conc. (plasma)

Structure (SMILES)	human pl. T1/2 [1] [h]	remaining at 24 h, 10 μM [1] [%]	mouse pl. T1/2 [2] [h]	remaining at 24 h, 10 μM [2] [%]	fraction unbound at 1 h, 10 μM (Plasma protein binding; read-out: Fraction unbound, fu)	fraction unbound at 1 h, 10 μM (Plasma protein binding; [4])	AUC(0-inf) ([3]; male, CD-1, plasma, iv) [ng·h/mL]	Cmax ([3]; male, CD-1, plasma, iv) [ng/mL]	half-life ([3]; male, CD-1, plasma, iv) [h]	clearance ([3]; male, CD-1, plasma, iv) [mL/min/kg]	Vd ([3]; male, CD-1, plasma, iv) [L/kg]	level at 0.083 h [3, 5] [ng/mL]	level at 0.25 h [3, 5] [ng/mL]	level at 0.5 h [3, 5] [ng/mL]	level at 1 h [3, 5] [ng/mL]	level at 2 h [3, 5] [ng/mL]	level at 3 h ([3]; male, CD-1, plasma, iv, time 3 h, read-out: Calc. Conc. (plasma)) [ng/mL]	level at 4 h ([3]; male, CD-1, plasma, iv, time 4 h, read-out: Calc. Conc. (plasma)) [ng/mL]	Calc. Conc. (plasma) ([3]; time 3 h)	Calc. Conc. (plasma) ([3]; time 4 h)
CC(C)NCCCC[C@@H]1NC(=O)[C@H](CCC(N)=O)NC(=O)[C@H](Cc2ccc(O)cc2)NC(=O)[C@@H]2CSSC[C@H](NC(=O)[C@H](Cc3ccc(O)cc3)NC(=O)[C@H](Cc3c[nH]cn3)NC(=O)[C@H](Cc3ccc(O)cc3)NC(=O)[C@@H]3CCCN3C(=O)[C@H]3CCCN3C1=O)C(=O)N[C@@H](CO)C(=O)NC1(CC1)C(=O)N1CCC[C@@H]1C(=O)N[C@@H](CCCNC(C)C)C(=O)N[C@@H](CCCNC(=N)N)C(=O)N[C@@H](Cc1ccc(O)cc1)C(=O)N2 [Ex. 2, cyclo(-Tyr^1-His^2-Tyr^3-Cys^4-Ser^5-Acc^6-^DPro^7-Orn(iPr)^8-Arg^9-Tyr^10-Cys^11-Tyr^12-Gln^13-Lys(iPr)^14-^DPro^15-Pro^16-), disulfide bond between Cys^4 and Cys^11] (cyclo(YHYCS[Ac3c][dP][Orn(iPr)]RYCYQ[Lys(iPr)][dP]P); disulfide 4-11)	24	87	24	100	0.57	0.57	1460	1470	0.7	11.4	0.681	1250	1210	996	516	117	24	14		
CC(C)NCCCC[C@@H]1NC(=O)[C@H](CCC(N)=O)NC(=O)[C@H](Cc2ccc(O)cc2)NC(=O)[C@@H]2CSSC[C@H](NC(=O)[C@H](Cc3ccc(O)cc3)NC(=O)[C@H](Cc3c[nH]cn3)NC(=O)[C@H](Cc3ccc(O)cc3)NC(=O)[C@@H]3CCCN3C(=O)[C@@H](CCCCNC(C)C)NC1=O)C(=O)N[C@@H](CO)C(=O)N[C@@H](C)C(=O)N1CCC[C@@H]1C(=O)N[C@@H](CCCNC(C)C)C(=O)N[C@@H](CCCNC(=N)N)C(=O)N[C@@H](Cc1ccc(O)cc1)C(=O)N2 [Ex. 1, cyclo(-Tyr^1-His^2-Tyr^3-Cys^4-Ser^5-Ala^6-^DPro^7-Orn(iPr)^8-Arg^9-Tyr^10-Cys^11-Tyr^12-Gln^13-Lys(iPr)^14-^DLys(iPr)^15-Pro^16-), disulfide bond between Cys^4 and Cys^11] (cyclo(A[dP][Orn(iPr)]RYCYQ[Lys(iPr)][dLys(iPr)]PYHYCS); disulfide 6-15)	24	100	24	100	0.45	0.45	1020	1880	0.4	16.4	0.532	1690	1050	749	385	61			<LoQ	<LoQ
